Source: the supplement of paper PMC4862054

tested on: HCC1599; assay: normalised response (% of control), CellTox Green; higher = less cell death (100 = DMSO, 0 = benzethonium chloride kill control); conditions: incubation time: 72 h
In short: (§1)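 Plates were normalised with 0.1 % DMSO as 100 and a positive kill control as 0. Breast cancer cell lines in 20 µl suspension had been seeded into 384-well plates with compound at 5 concentrations in 10-fold steps over a compound-specific 10,000-fold range, incubated 72 h, and read for CellTox Green fluorescence (485/520 nm) followed by CellTiter-Glo luminescence. Each value is the normalised signal at a single concentration.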

Row | SMILES | normalised response
1 | Nc1nccc(-c2c(-c3ccc(F)cc3)ncn2C2CCCCC2)n1 (1000 nM) | 100%
2 | CN(c1ccccc1CNc1nc(Nc2ccc3c(c2)CC(=O)N3)ncc1C(F)(F)F)S(C)(=O)=O (1000 nM) | 97.1%
3 | FC(F)c1nc2ccccc2n1-c1nc(N2CCOCC2)nc(N2CCOCC2)n1 [ZSTK474] (1000 nM) | 96.3%
4 | C[C@@H]1CCN(C(=O)CC#N)C[C@@H]1N(C)c1ncnc2[nH]ccc12 [Tofacitinib] (500 nM) | 112%
5 | COC(=O)C[C@](O)(CCCC(C)(C)O)C(=O)O[C@@H]1C(OC)=C[C@]23CCCN2CCc2cc4c(cc2[C@H]13)OCO4 [Omacetaxine] (1000 nM) | 85.7%
6 | CS(=O)(=O)CCNCc1ccc(-c2ccc3ncnc(Nc4ccc(OCc5cccc(F)c5)c(Cl)c4)c3c2)o1 [Lapatinib] (100 nM) | 105%

tested on: CAL-51; assay: as above; conditions: incubation time: 72 h
In short: as §1

Row | SMILES | normalised response
7 | Cc1cc(C(C)Nc2ccccc2)c2nc(N3CCOCC3)cc(=O)n2c1 (stereo not given) [TGX-221] (1000 nM) | 105%
8 | CCCC(CCC)C(=O)O [Valproic acid] (100000 nM) | 53.4%
9 | COc1cc(Nc2ncc(F)c(Nc3ccc4c(n3)NC(=O)C(C)(C)O4)n2)cc(OC)c1OC [Tamatinib] (1000 nM) | 89.9%
10 | Nc1nccc(-c2c(-c3ccc(F)cc3)ncn2C2CCCCC2)n1 (1000 nM) | 86.2%
11 | CN(c1ccccc1CNc1nc(Nc2ccc3c(c2)CC(=O)N3)ncc1C(F)(F)F)S(C)(=O)=O (1000 nM) | 15.1%
12 | FC(F)c1nc2ccccc2n1-c1nc(N2CCOCC2)nc(N2CCOCC2)n1 [ZSTK474] (1000 nM) | 92.8%
13 | C[C@@H]1CCN(C(=O)CC#N)C[C@@H]1N(C)c1ncnc2[nH]ccc12 [Tofacitinib] (500 nM) | 103%
14 | COC(=O)C[C@](O)(CCCC(C)(C)O)C(=O)O[C@@H]1C(OC)=C[C@]23CCCN2CCc2cc4c(cc2[C@H]13)OCO4 [Omacetaxine] (1000 nM) | 111%
15 | CS(=O)(=O)CCNCc1ccc(-c2ccc3ncnc(Nc4ccc(OCc5cccc(F)c5)c(Cl)c4)c3c2)o1 [Lapatinib] (100 nM) | 101%

tested on: MDA-MB-468; assay: as above; conditions: incubation time: 72 h
In short: as §1

Row | SMILES | normalised response
16 | Cc1cc(C(C)Nc2ccccc2)c2nc(N3CCOCC3)cc(=O)n2c1 (stereo not given) [TGX-221] (1000 nM) | 113%
17 | CCCC(CCC)C(=O)O [Valproic acid] (100000 nM) | 123%
18 | Nc1nccc(-c2c(-c3ccc(F)cc3)ncn2C2CCCCC2)n1 (1000 nM) | 67.2%
19 | CN(c1ccccc1CNc1nc(Nc2ccc3c(c2)CC(=O)N3)ncc1C(F)(F)F)S(C)(=O)=O (1000 nM) | 150%
20 | FC(F)c1nc2ccccc2n1-c1nc(N2CCOCC2)nc(N2CCOCC2)n1 [ZSTK474] (1000 nM) | 79.9%
21 | C[C@@H]1CCN(C(=O)CC#N)C[C@@H]1N(C)c1ncnc2[nH]ccc12 [Tofacitinib] (500 nM) | 137%
22 | COC(=O)C[C@](O)(CCCC(C)(C)O)C(=O)O[C@@H]1C(OC)=C[C@]23CCCN2CCc2cc4c(cc2[C@H]13)OCO4 [Omacetaxine] (1000 nM) | 67.1%
23 | CS(=O)(=O)CCNCc1ccc(-c2ccc3ncnc(Nc4ccc(OCc5cccc(F)c5)c(Cl)c4)c3c2)o1 [Lapatinib] (100 nM) | 116%

tested on: MFM-223; assay: as above; conditions: incubation time: 72 h
In short: as §1

Row | SMILES | normalised response
24 | Cc1cc(C(C)Nc2ccccc2)c2nc(N3CCOCC3)cc(=O)n2c1 (stereo not given) [TGX-221] (1000 nM) | 80.3%
25 | CCCC(CCC)C(=O)O [Valproic acid] (100000 nM) | 99.4%
26 | COc1cc(Nc2ncc(F)c(Nc3ccc4c(n3)NC(=O)C(C)(C)O4)n2)cc(OC)c1OC [Tamatinib] (1000 nM) | 103%
27 | FC(F)c1nc2ccccc2n1-c1nc(N2CCOCC2)nc(N2CCOCC2)n1 [ZSTK474] (1000 nM) | 71%
28 | C[C@@H]1CCN(C(=O)CC#N)C[C@@H]1N(C)c1ncnc2[nH]ccc12 [Tofacitinib] (500 nM) | 103%
29 | COC(=O)C[C@](O)(CCCC(C)(C)O)C(=O)O[C@@H]1C(OC)=C[C@]23CCCN2CCc2cc4c(cc2[C@H]13)OCO4 [Omacetaxine] (1000 nM) | 36%
30 | CS(=O)(=O)CCNCc1ccc(-c2ccc3ncnc(Nc4ccc(OCc5cccc(F)c5)c(Cl)c4)c3c2)o1 [Lapatinib] (100 nM) | 101%

tested on: MDA-MB-231; assay: as above; conditions: incubation time: 72 h
In short: as §1

Row | SMILES | normalised response
31 | Cc1cc(C(C)Nc2ccccc2)c2nc(N3CCOCC3)cc(=O)n2c1 (stereo not given) [TGX-221] (1000 nM) | 110%
32 | CCCC(CCC)C(=O)O [Valproic acid] (100000 nM) | 102%
33 | COc1cc(Nc2ncc(F)c(Nc3ccc4c(n3)NC(=O)C(C)(C)O4)n2)cc(OC)c1OC [Tamatinib] (1000 nM) | 107%
34 | Nc1nccc(-c2c(-c3ccc(F)cc3)ncn2C2CCCCC2)n1 (1000 nM) | 84%
35 | CN(c1ccccc1CNc1nc(Nc2ccc3c(c2)CC(=O)N3)ncc1C(F)(F)F)S(C)(=O)=O (1000 nM) | 83.4%
36 | FC(F)c1nc2ccccc2n1-c1nc(N2CCOCC2)nc(N2CCOCC2)n1 [ZSTK474] (1000 nM) | 90.3%
37 | C[C@@H]1CCN(C(=O)CC#N)C[C@@H]1N(C)c1ncnc2[nH]ccc12 [Tofacitinib] (500 nM) | 116%
38 | COC(=O)C[C@](O)(CCCC(C)(C)O)C(=O)O[C@@H]1C(OC)=C[C@]23CCCN2CCc2cc4c(cc2[C@H]13)OCO4 [Omacetaxine] (1000 nM) | 66.4%
39 | CS(=O)(=O)CCNCc1ccc(-c2ccc3ncnc(Nc4ccc(OCc5cccc(F)c5)c(Cl)c4)c3c2)o1 [Lapatinib] (100 nM) | 115%

tested on: HDQ-P1; assay: as above; conditions: incubation time: 72 h
In short: as §1

Row | SMILES | normalised response
40 | Cc1cc(C(C)Nc2ccccc2)c2nc(N3CCOCC3)cc(=O)n2c1 (stereo not given) [TGX-221] (1000 nM) | 103%
